From the supplement of paper PMC6045584
± gives the standard deviation of the averaged measurements.

Columns and labels:
EVEROLIMUS = compound: CO[C@H]1C[C@@H]2CC[C@@H](C)[C@@](O)(O2)C(=O)C(=O)N2CCCC[C@H]2C(=O)O[C@H]([C@H](C)C[C@@H]2CC[C@@H](OCCO)[C@H](OC)C2)CC(=O)[C@H](C)/C=C(\C)[C@@H](O)[C@@H](OC)C(=O)[C@H](C)C[C@H](C)/C=C/C=C/C=C/1C [EVEROLIMUS]; assay: area under dose-response curve of surviving fraction (unscaled, Aref=0) (surviving fraction x log10(nM)); higher = more resistant; conditions: exposure time: 5 days; dose range 0.5-1000 nM
Summary of the method: (§1)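 Tumour cell lines in 384-well plates were exposed for five days to eight inhibitor concentrations from 0.5 to 1000 nM. Viability was read by CellTiter-Glo luminescence, normalised to DMSO-only wells, in three screens per line. Dose-response survival curves were fitted to surviving fractions by 3-parameter logistic regression in the drc R package. Area under the curve is the unscaled activity area (Aref = 0) over log10 dose.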

VINORELBINE = compound: CCC1=C[C@@H]2CN(C1)Cc1c([nH]c3ccccc13)[C@@](C(=O)OC)(c1cc3c(cc1OC)N(C)[C@H]1[C@@](O)(C(=O)OC)[C@H](OC(C)=O)[C@]4(CC)C=CCN5CC[C@]31[C@@H]54)C2 [VINORELBINE]; assay: as above; conditions: exposure time: 5 days; dose range 0.5-1000 nM
Summary of the method: as §1

MK2206 = compound: NC1(c2ccc(-c3nc4ccn5c(=O)[nH]nc5c4cc3-c3ccccc3)cc2)CCC1 [MK2206]; assay: as above; conditions: exposure time: 5 days; dose range 0.5-1000 nM
Summary of the method: as §1

METHOTREXATE = compound: CN(Cc1cnc2nc(N)nc(N)c2n1)c1ccc(C(=O)N[C@@H](CCC(=O)O)C(=O)O)cc1 [METHOTREXATE]; assay: as above; conditions: exposure time: 5 days; dose range 0.5-1000 nM
Summary of the method: as §1

AZD4547 = compound: COc1cc(CCc2cc(NC(=O)c3ccc(N4CC(C)NC(C)C4)cc3)n[nH]2)cc(OC)c1 [AZD4547]; assay: as above; conditions: exposure time: 5 days; dose range 0.5-1000 nM
Summary of the method: as §1

ETOPOSIDE = compound: COc1cc([C@@H]2c3cc4c(cc3[C@@H](O[C@@H]3O[C@@H]5CO[C@@H](C)O[C@H]5[C@H](O)[C@H]3O)[C@H]3COC(=O)[C@H]23)OCO4)cc(OC)c1O [ETOPOSIDE]; assay: as above; conditions: exposure time: 5 days; dose range 0.5-1000 nM
Summary of the method: as §1

ERLOTINIB [1] = compound: T1, C#Cc1cccc(Nc2ncnc3cc(OCCOC)c(OCCOC)cc23)c1 [ERLOTINIB]; assay: as above; conditions: exposure time: 5 days; dose range 0.5-1000 nM
Summary of the method: as §1

[2] = compound: Cc1nc(Nc2n[nH]c3c2CN(C(=O)N[C@H](CN(C)C)c2ccccc2)C3(C)C)c2sccc2n1; assay: as above; conditions: exposure time: 5 days; dose range 0.5-1000 nM
Summary of the method: as §1

[3] = compound: O=C(NOCC1CC1)c1ccc(F)c(F)c1Nc1ccc(I)cc1Cl; assay: as above; conditions: exposure time: 5 days; dose range 0.5-1000 nM
Summary of the method: as §1

PLX-4720 = compound: CCCS(=O)(=O)Nc1ccc(F)c(C(=O)c2c[nH]c3ncc(Cl)cc23)c1F [PLX-4720]; assay: as above; conditions: exposure time: 5 days; dose range 0.5-1000 nM
Summary of the method: as §1

GEMCITABINE = compound: Nc1ccn([C@@H]2O[C@H](CO)[C@@H](O)C2(F)F)c(=O)n1 [GEMCITABINE]; assay: as above; conditions: exposure time: 5 days; dose range 0.5-1000 nM
Summary of the method: as §1

ERLOTINIB [4] = compound: T1, ERLOTINIB; assay: surviving fraction relative to DMSO-only wells; higher = less growth inhibition; conditions: exposure time: 5 days
Summary of the method: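 A line counted only if its three screens reached replicate Pearson r >0.7 and median Z' >0.3. Tumour cells in log phase were seeded at 250–500 per well in 384-well plates and, after 24 hours, kept in continuous contact with inhibitors at 0.5, 1, 5, 10, 50, 100, 500 and 1000 nM for five days. Surviving fraction was taken from CellTiter-Glo luminescence relative to the median of DMSO-only wells.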

G292 BONE
area under dose-response curve (EVEROLIMUS): 1.68
area under dose-response curve (VINORELBINE): 1.48
area under dose-response curve (MK2206): 2.96
area under dose-response curve (METHOTREXATE): 3.41
area under dose-response curve (AZD4547): 1.58
area under dose-response curve (ETOPOSIDE): 2.76
area under dose-response curve (ERLOTINIB [1]): 3.44
area under dose-response curve [2]: 1.22
area under dose-response curve [3]: 3.17
area under dose-response curve (PLX-4720): 3.19
area under dose-response curve (GEMCITABINE): 1.39
surviving fraction (ERLOTINIB [4]; 5 nM): 1.03 ± 0.051
surviving fraction (ERLOTINIB [4]; 10 nM): 1.06 ± 0.018
surviving fraction (ERLOTINIB [4]; 50 nM): 1.05 ± 0.038
surviving fraction (ERLOTINIB [4]; 100 nM): 1.07 ± 0.033
surviving fraction (ERLOTINIB [4]; 500 nM): 0.979 ± 0.019
surviving fraction (ERLOTINIB [4]; 1000 nM): 1.07 ± 0.092

LNCAP PROSTATE
area under dose-response curve (EVEROLIMUS): 1.21
area under dose-response curve (VINORELBINE): 1.23
area under dose-response curve (MK2206): 2.02
area under dose-response curve (METHOTREXATE): 2.36
area under dose-response curve (AZD4547): 2.84
area under dose-response curve (ETOPOSIDE): 2.68
area under dose-response curve (ERLOTINIB [1]): 3.2
area under dose-response curve [2]: 0.726
area under dose-response curve [3]: 2.93
area under dose-response curve (PLX-4720): 3.17
area under dose-response curve (GEMCITABINE): 1.22
surviving fraction (ERLOTINIB [4]; 5 nM): 0.956 ± 0.032
surviving fraction (ERLOTINIB [4]; 10 nM): 0.892 ± 0.053
surviving fraction (ERLOTINIB [4]; 50 nM): 0.947 ± 0.1
surviving fraction (ERLOTINIB [4]; 100 nM): 1.02 ± 0.054
surviving fraction (ERLOTINIB [4]; 1000 nM): 0.967 ± 0.028

SCC003 HEADNECK
area under dose-response curve (VINORELBINE): 1.98
area under dose-response curve (METHOTREXATE): 2.41
area under dose-response curve (ERLOTINIB [1]): 3.14
area under dose-response curve [2]: 1.57
area under dose-response curve [3]: 2.83
area under dose-response curve (PLX-4720): 2.97
area under dose-response curve (GEMCITABINE): 1.57
surviving fraction (ERLOTINIB [4]; 5 nM): 1.13 ± 0.045
surviving fraction (ERLOTINIB [4]; 10 nM): 1.06 ± 0.11
surviving fraction (ERLOTINIB [4]; 50 nM): 0.997 ± 0.091
surviving fraction (ERLOTINIB [4]; 100 nM): 1.04 ± 0.051
surviving fraction (ERLOTINIB [4]; 500 nM): 0.702 ± 0.024
surviving fraction (ERLOTINIB [4]; 1000 nM): 0.552 ± 0.038

HUO3N1 BONE
area under dose-response curve (EVEROLIMUS): 2.1
area under dose-response curve (VINORELBINE): 2
area under dose-response curve (MK2206): 2.94
area under dose-response curve (METHOTREXATE): 2.8
area under dose-response curve (AZD4547): 2.9
area under dose-response curve (ETOPOSIDE): 2.97
area under dose-response curve (ERLOTINIB [1]): 3.54
area under dose-response curve [2]: 2.38
area under dose-response curve [3]: 3.35
area under dose-response curve (PLX-4720): 3.12
area under dose-response curve (GEMCITABINE): 1.51
surviving fraction (ERLOTINIB [4]; 10 nM): 1.117 ± 0.0084
surviving fraction (ERLOTINIB [4]; 50 nM): 1.13 ± 0.025
surviving fraction (ERLOTINIB [4]; 100 nM): 1.1 ± 0.018
surviving fraction (ERLOTINIB [4]; 500 nM): 1.02 ± 0.025
surviving fraction (ERLOTINIB [4]; 1000 nM): 1.02 ± 0.038

C33A CERVIX
area under dose-response curve (EVEROLIMUS): 1.43
area under dose-response curve (VINORELBINE): 1.62
area under dose-response curve (MK2206): 3.12
area under dose-response curve (METHOTREXATE): 2.33
area under dose-response curve (AZD4547): 3.03
area under dose-response curve (ETOPOSIDE): 2.61
area under dose-response curve (ERLOTINIB [1]): 3.19
area under dose-response curve [2]: 0.95
area under dose-response curve [3]: 2.3
area under dose-response curve (GEMCITABINE): 1.15
surviving fraction (ERLOTINIB [4]; 5 nM): 1.06 ± 0.03
surviving fraction (ERLOTINIB [4]; 10 nM): 1.14 ± 0.019
surviving fraction (ERLOTINIB [4]; 50 nM): 1.06 ± 0.077
surviving fraction (ERLOTINIB [4]; 100 nM): 1.08 ± 0.029
surviving fraction (ERLOTINIB [4]; 500 nM): 0.819 ± 0.052
surviving fraction (ERLOTINIB [4]; 1000 nM): 0.655 ± 0.031

HCC1395 BREAST
area under dose-response curve (EVEROLIMUS): 3.36
area under dose-response curve (VINORELBINE): 2.74
area under dose-response curve (MK2206): 3.23
area under dose-response curve (METHOTREXATE): 3.78
area under dose-response curve (AZD4547): 2.6
area under dose-response curve (ETOPOSIDE): 3.25
area under dose-response curve (ERLOTINIB [1]): 3.97
area under dose-response curve [2]: 3.37
area under dose-response curve [3]: 3.01
area under dose-response curve (PLX-4720): 2.7
surviving fraction (ERLOTINIB [4]; 1 nM): 0.992 ± 0.02
surviving fraction (ERLOTINIB [4]; 5 nM): 1.33 ± 0.036
surviving fraction (ERLOTINIB [4]; 10 nM): 1.18 ± 0.14
surviving fraction (ERLOTINIB [4]; 100 nM): 1.28 ± 0.027
surviving fraction (ERLOTINIB [4]; 500 nM): 1.14 ± 0.042
surviving fraction (ERLOTINIB [4]; 1000 nM): 1.19 ± 0.051

CAL72 BONE
area under dose-response curve (EVEROLIMUS): 2.27
area under dose-response curve (VINORELBINE): 2.14
area under dose-response curve (MK2206): 3.66
area under dose-response curve (METHOTREXATE): 2.39
area under dose-response curve (AZD4547): 1.94
area under dose-response curve (ETOPOSIDE): 3.1
area under dose-response curve (ERLOTINIB [1]): 3.5
area under dose-response curve [2]: 1.77
area under dose-response curve [3]: 3.52
area under dose-response curve (PLX-4720): 3.44
area under dose-response curve (GEMCITABINE): 1.4
surviving fraction (ERLOTINIB [4]; 5 nM): 1.05 ± 0.1
surviving fraction (ERLOTINIB [4]; 100 nM): 1.1 ± 0.083
surviving fraction (ERLOTINIB [4]; 500 nM): 1.06 ± 0.084
surviving fraction (ERLOTINIB [4]; 1000 nM): 1.07 ± 0.058
